Laboratory results taken from patent publication US20230340011A1 (Asteroid Therapeutics, priority 2022, published 2023).

The compounds below were run against SREBP-2 (Homo sapiens (Human), UniProt Q12772) (assay: In vitro assay SREBP-2: PathHunter U2OS SREBP-2 Nuclear Translocation Cell Line, U18666A-stimulated). Details: PathHunter U2OS SREBP-2 nuclear translocation cells, U18666A 10 μM, overnight (16 hours).
Type: cell-based
Work on `C[C@H](CCC(=O)N1CCC[C@@H](Oc2cnn(C)c2)C1)[C@H]1CC[C@H]2[C@@H]3CC=C4C[C@@H](O)CC[C@]4(C)[C@H]3CC[C@]12C` [Example 518, (4R)-4-[(1R,3aS,3bS,7S,9aR,9bS,11aR)-7-hydroxy-9a,11a-dimethyl-1H,2H,3H,3aH,3bH,4H,6H,7H,8H,9H,9aH,9bH,10H,11H,11aH-cyclopenta[a]phenanthren-1-yl]-1-[(3R)-3-[(1-methyl-1H-pyrazol-4-yl)oxy]piperidin-1-yl]pentan-1-one] yielded an IC50 of under 250 nM.
In the case of `CCN(CC)C(=O)C(=O)O[C@@H](C)[C@H]1CC[C@H]2[C@@H]3CC=C4C[C@@H](O)CC[C@]4(C)[C@H]3CC[C@]12C` [Example 154, (1S)-1-[(1S,3aS,3bS,7S,9aR,9bS,11aS)-7-hydroxy-9a,11a-dimethyl-1H,2H,3H,3aH,3bH,4H,6H,7H,8H,9H,9aH,9bH,10H,11H,11aH-cyclopenta[a]phenanthren-1-yl]ethyl (diethylcarbamoyl)formate], the IC50 is reported as under 250 nM.
Compound `C[C@H](CCC(=O)N1CCC(O)(c2ccnnc2)CC1)[C@H]1CC[C@H]2[C@@H]3CC=C4C[C@@H](O)CC[C@]4(C)[C@H]3CC[C@]12C` [Example 343, (R)-4-((3S,8S,9S,10R,13R,14S,17R)-3-hydroxy-10,13-dimethyl-2,3,4,7,8,9,10,11,12,13,14,15,16,17-tetradecahydro-1H-cyclopenta[a]phenanthren-17-yl)-1-(4-hydroxy-4-(pyridazin-4-yl)piperidin-1-yl) pentan-1-one] has an IC50 of 1000 to 10000 nM.
`CC(=O)NC1CN(C(=O)CC[C@@H](C)[C@H]2CC[C@H]3[C@@H]4CC=C5C[C@@H](O)CC[C@]5(C)[C@H]4CC[C@]23C)C1` [Example 326, N-{1-[(4R)-4-[(1R,3aS,3bS,7S,9aR,9bS,11aR)-7-hydroxy-9a,11a-dimethyl-1H,2H,3H,3aH,3bH,4H,6H,7H,8H,9H,9aH,9bH,10H,11H,11aH-cyclopenta[a]phenanthren-1-yl]pentanoyl]azetidin-3-yl}acetamide] was tested, and the IC50 was 250 to 1000 nM.
`Cc1noc(OC2CCN(C(=O)CC[C@@H](C)[C@H]3CC[C@H]4[C@@H]5CC=C6C[C@@H](O)CC[C@]6(C)[C@H]5CC[C@]34C)CC2)n1` [Example 506, (R)-4-((3S,8S,9S,10R,13R,14S,17R)-3-hydroxy-10,13-dimethyl-2,3,4,7,8,9,10,11,12,13,14,15,16,17-tetradecahydro-1H-cyclopenta[a]phenanthren-17-yl)-1-(4-((3-methyl-1,2,4-oxadiazol-5-yl)oxy)piperidin-1-yl)pentan-1-one] gave an IC50 of under 250 nM.
`Cc1noc(C2CCN(C(=O)CC[C@@H](C)[C@H]3CC[C@H]4[C@@H]5CC=C6C[C@@H](O)CC[C@]6(C)[C@H]5CC[C@]34C)CC2)n1` [Example 505, (R)-4-((3S,8S,9S,10R,13R,14S,17R)-3-hydroxy-10,13-dimethyl-2,3,4,7,8,9,10,11,12,13,14,15,16,17-tetradecahydro-1H-cyclopenta[a]phenanthren-17-yl)-1-(4-(3-methyl-1,2,4-oxadiazol-5-yl)piperidin-1-yl)pentan-1-one] showed an IC50 of under 250 nM.
`C[C@H](CCC(=O)N1CCN(C(N)=O)CC1)[C@H]1CC[C@H]2[C@@H]3CC=C4C[C@@H](O)CC[C@]4(C)[C@H]3CC[C@]12C` [Example 4, 4—((R)-4-((3S,8S,9S,10R,13R,14S,17R)-3-hydroxy-10,13-dimethyl-2,3,4,7,8,9,10,11,12,13,14,15,16,17-tetradecahydro-1H-cyclopenta[a]phenanthren-17-yl)pentanoyl)piperazine-1-carboxamide] showed an IC50 of under 250 nM.
With `C[C@H](CCC(=O)N1CCC(O)(c2ccncc2)CC1)[C@H]1CC[C@H]2[C@@H]3CC=C4C[C@@H](O)CC[C@]4(C)[C@H]3CC[C@]12C` [Example 344, (R)-4-((3S,8S,9S,10R,13R,14S,17R)-3-hydroxy-10,13-dimethyl-2,3,4,7,8,9,10,11,12,13,14,15,16,17-tetradecahydro-1H-cyclopenta[a]phenanthren-17-yl)-1-(4-hydroxy-4-(pyridin-4-yl)piperidin-1-yl)pentan-1-one] the IC50 was under 250 nM.
In the case of `C[C@H](CCC(=O)N(C)Cc1ccccn1)[C@H]1CC[C@H]2[C@@H]3CC=C4C[C@@H](O)CC[C@]4(C)[C@H]3CC[C@]12C` [Example 542, (4R)-4-[(1R,3aS,3bS,7S,9aR,9bS,11aR)-7-hydroxy-9a,11a-dimethyl-1H,2H,3H,3aH,3bH,4H,6H,7H,8H,9H,9aH,9bH,10H,11H,11aH-cyclopenta[a]phenanthren-1-yl]-N-methyl-N— [(pyridin-2-yl)methyl]pentanamide], the IC50 is reported as 250 to 1000 nM.
`C[C@H](CNC(=O)N(C)C)[C@H]1CC[C@H]2[C@@H]3CC=C4C[C@@H](O)CC[C@]4(C)[C@H]3CC[C@]12C` [Example 347, 3-((S)-2-((3S,8S,9S,10R,13S,14S,17R)-3-hydroxy-10,13-dimethyl-2,3,4,7,8,9,10,11,12,13,14,15,16,17-tetradecahydro-1H-cyclopenta[a]phenanthren-17-yl)propyl)-1,1-dimethylurea] showed an IC50 of 250 to 1000 nM.
Work on `CNC(=O)c1cncc(O[C@@H](C)[C@H]2CC[C@H]3[C@@H]4CC=C5C[C@@H](O)CC[C@]5(C)[C@H]4CC[C@]23C)c1` [Example 266, 5-((S)-1-((3S,8S,9S,10R,13S,14S,17S)-3-hydroxy-10,13-dimethyl-2,3,4,7,8,9,10,11,12,13,14,15,16,17-tetradecahydro-1H-cyclopenta[a]phenanthren-17-yl)ethoxy)-N-methylnicotinamide] yielded an IC50 of 250 to 1000 nM.
`CC(=O)N1CCN(C(=O)CC[C@@H](C)[C@H]2CC[C@H]3[C@@H]4CC=C5C[C@@H](O)CC[C@]5(C)[C@H]4CC[C@]23C)CC1` [Example 3, (R)-1-(4-acetylpiperazin-1-yl)-4-((3S,8S,9S,10R,13R,14S,17R)-3-hydroxy-10,13-dimethyl-2,3,4,7,8,9,10,11,12,13,14,15,16,17-tetradecahydro-1H-cyclopenta[a]phenanthren-17-yl)pentan-1-one] was tested, and the IC50 was under 250 nM.
Compound “(4R)-4-[(1R,3aS,3bS,7S,9aR,9bS,11aR)-7-hydroxy-9a,11a-dimethyl-1H,2H,3H,3aH,3bH,4H,6H,7H,8H,9H,9aH,9bH,10H,11H,11aH-cyclopenta[a]phenanthren-1-yl]-1-[(3R)-3-(pyrimidin-4-yloxy)piperidin-1-yl]pentan-1-one [Example 462]” has an IC50 of under 250 nM.
`C[C@H](CCC(=O)N1CC[C@H](C(=O)N(C)C)C1)[C@H]1CC[C@H]2[C@@H]3CC=C4C[C@@H](O)CC[C@]4(C)[C@H]3CC[C@]12C` [Example 537, (S)-1-((R)-4-((3S,8S,9S,10R,13R,14S,17R)-3-hydroxy-10,13-dimethyl-2,3,4,7,8,9,10,11,12,13,14,15,16,17-tetradecahydro-1H-cyclopenta[a]phenanthren-17-yl)pentanoyl)-N,N-dimethylpyrrolidine-3-carboxamide] gave an IC50 of 250 to 1000 nM.
Work on `C[C@H](CCC(=O)N(C)CC(=O)O)[C@H]1CC[C@H]2[C@@H]3CC=C4C[C@@H](O)CC[C@]4(C)[C@H]3CC[C@]12C` [Example 108, N—((R)-4-((3S,8S,9S,10R,13R,14S,17R)-3-hydroxy-10,13-dimethyl-2,3,4,7,8,9,10,11,12,13,14,15,16,17-tetradecahydro-1H-cyclopenta[a]phenanthren-17-yl)pentanoyl)-N-methylglycine] yielded an IC50 of over 10000 nM.
